Measured values: ChEMBL document CHEMBL1201861, “Genomics of Drug Sensitity in Cancer screening data, Wellcome Trust Sanger Institute”

Tests used:
Assay in all cases: cells
[1] = test system: D-392MG; type: functional, cell-based, Homo sapiens; conditions: Homo sapiens, D-392MG
[2] = test system: DK-MG; type: functional, cell-based, Homo sapiens; conditions: Homo sapiens, DK-MG;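 further: growth inhibition of DK-MG cells, read out with a cell viability assay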
Description: SANGER: Inhibition of human DK-MG cell growth in a cell viability assay.

[3] = test system: EC-GI-10; type: functional, cell-based, Homo sapiens; conditions: Homo sapiens, EC-GI-10
Description: SANGER: Inhibition of human EC-GI-10 cell growth in a cell viability assay.

[4] = test system: EKVX; type: functional, cell-based, Homo sapiens; conditions: Homo sapiens, EKVX;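 further: growth inhibition of human EKVX cells, read out with a cell viability assay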
Description: SANGER: Inhibition of human EKVX cell growth in a cell viability assay.

[5] = test system: ES1; type: functional, cell-based, Homo sapiens; conditions: Homo sapiens, ES1;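 further: growth inhibition of ES1 cells, read out with a cell viability assay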
Description: SANGER: Inhibition of human ES1 cell growth in a cell viability assay.

[6] = test system: GCIY; type: functional, cell-based, Homo sapiens; conditions: Homo sapiens, GCIY;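 further: growth inhibition of the human GCIY cell line, read out by a cell viability assay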
Description: SANGER: Inhibition of human GCIY cell growth in a cell viability assay.

[7] = test system: GCT; type: functional, cell-based, Homo sapiens; conditions: Homo sapiens, GCT;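 further: GCT cell line proliferation inhibition, read out with a cell viability assay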
Description: SANGER: Inhibition of human GCT cell growth in a cell viability assay.

[8] = test system: HN; type: functional, cell-based, Homo sapiens; conditions: Homo sapiens, HN
Description: SANGER: Inhibition of human HN cell growth in a cell viability assay.

[9] = test system: HSC-3; type: functional, cell-based, Homo sapiens; conditions: Homo sapiens, HSC-3
Description: SANGER: Inhibition of human HSC-3 cell growth in a cell viability assay.

[10] = test system: HT1197; type: functional, cell-based, Homo sapiens, HT-1197; conditions: Homo sapiens, HT1197
Description: SANGER: Inhibition of human HT-1197 cell growth in a cell viability assay.

[11] = test system: HT-3; type: functional, cell-based, Homo sapiens; conditions: Homo sapiens, HT-3;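 further: growth inhibition measured with a cell viability readout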
Description: SANGER: Inhibition of human HT-3 cell growth in a cell viability assay.

[12] = test system: KM12; type: functional, cell-based, Homo sapiens; conditions: Homo sapiens, KM12;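 further: KM12 cell growth inhibition, read out with a cell viability assay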
Description: SANGER: Inhibition of human KM12 cell growth in a cell viability assay.

[13] = test system: KYSE-180; type: functional, cell-based, Homo sapiens; conditions: Homo sapiens, KYSE-180;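 further: growth inhibition of KYSE-180 cells, read out with a cell viability assay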
Description: SANGER: Inhibition of human KYSE-180 cell growth in a cell viability assay.

[14] = test system: KYSE-520 cell line; type: functional, cell-based, Homo sapiens; conditions: Homo sapiens, KYSE-520;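 further: growth inhibition of human KYSE-520 cells, read out with a viability assay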
Description: SANGER: Inhibition of human KYSE-520 cell growth in a cell viability assay.

[15] = test system: L-428; type: functional, cell-based; conditions: Homo sapiens
Description: SANGER: Inhibition of human L-428 cell growth in a cell viability assay.

[16] = test system: LAN-6; type: functional, cell-based, Homo sapiens; conditions: Homo sapiens, LAN-6;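 further: growth inhibition of LAN-6 cells, determined with a cell viability assay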
Description: SANGER: Inhibition of human LAN-6 cell growth in a cell viability assay.

[17] = test system: LB1047-RCC; type: functional, cell-based, Homo sapiens; conditions: Homo sapiens, LB1047-RCC;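 further: inhibition of cell growth, determined with a cell viability assay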
Description: SANGER: Inhibition of human LB1047-RCC cell growth in a cell viability assay.

[18] = test system: LU-99A; type: functional, cell-based, Homo sapiens; conditions: Homo sapiens, LU-99A;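 further: growth inhibition of LU-99A cells, read out with a cell viability assay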
Description: SANGER: Inhibition of human LU-99A cell growth in a cell viability assay.

[19] = test system: ME-180; type: functional, cell-based; conditions: Homo sapiens;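 further: cell viability assay measuring growth inhibition of ME-180 cells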
Description: SANGER: Inhibition of human ME-180 cell growth in a cell viability assay.

[20] = test system: MEG-01; type: functional, cell-based; conditions: Homo sapiens;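 further: growth inhibition of MEG-01 cells, read out by a cell viability assay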
Description: SANGER: Inhibition of human MEG-01 cell growth in a cell viability assay.

[21] = test system: MOLT-16; type: functional, cell-based; conditions: Homo sapiens;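 further: growth inhibition of human MOLT-16 cells, read out with a cell viability assay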
Description: SANGER: Inhibition of human MOLT-16 cell growth in a cell viability assay.

[22] = test system: NCI-H1770; type: functional, cell-based; conditions: Homo sapiens;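 further: growth inhibition of NCI-H1770 cells determined with a viability readout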
Description: SANGER: Inhibition of human NCI-H1770 cell growth in a cell viability assay.

[23] = test system: NCI-H1838; type: functional, cell-based, Homo sapiens; conditions: Homo sapiens, NCI-H1838;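 further: growth inhibition of NCI-H1838 cells, determined with a cell viability readout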
Description: SANGER: Inhibition of human NCI-H1838 cell growth in a cell viability assay.

[24] = test system: NCI-H2052; type: functional, cell-based, Homo sapiens; conditions: Homo sapiens, NCI-H2052;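 further: growth inhibition of NCI-H2052 cells, read out with a cell viability assay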
Description: SANGER: Inhibition of human NCI-H2052 cell growth in a cell viability assay.

[25] = test system: NCI-H226; type: functional, cell-based, Homo sapiens; conditions: Homo sapiens, NCI-H226;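 further: cell viability read-out used to gauge growth inhibition of the cells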
Description: SANGER: Inhibition of human NCI-H226 cell growth in a cell viability assay.

[26] = test system: NCI-H520; type: functional, cell-based, Homo sapiens; conditions: Homo sapiens, NCI-H520;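 further: growth inhibition of NCI-H520 cells, measured by a cell viability assay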
Description: SANGER: Inhibition of human NCI-H520 cell growth in a cell viability assay.

[27] = test system: NCI-H526; type: functional, cell-based; conditions: Homo sapiens;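 further: growth inhibition of the human NCI-H526 cell line, measured by a cell viability assay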
Description: SANGER: Inhibition of human NCI-H526 cell growth in a cell viability assay.

[28] = test system: NCI-H82; type: functional, cell-based; conditions: Homo sapiens;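 further: growth inhibition of NCI-H82 cells, measured with a cell viability readout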
Description: SANGER: Inhibition of human NCI-H82 cell growth in a cell viability assay.

[29] = test system: OAW-28; type: functional, cell-based, Homo sapiens; conditions: Homo sapiens, OAW-28;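 further: growth inhibition of OAW-28 cells, read out with a cell viability assay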
Description: SANGER: Inhibition of human OAW-28 cell growth in a cell viability assay.

[30] = test system: OE19; type: functional, cell-based, Homo sapiens; conditions: Homo sapiens, OE19;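 further: growth inhibition of OE19 cells, measured through a cell viability read-out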
Description: SANGER: Inhibition of human OE19 cell growth in a cell viability assay.

[31] = test system: Panc1005; type: functional, cell-based, Homo sapiens; conditions: Homo sapiens, Panc1005;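 further: growth inhibition of human PANC-10-05 cells, measured by a cell viability assay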
Description: SANGER: Inhibition of human PANC-10-05 cell growth in a cell viability assay.

[32] = test system: RERF-LC-MS; type: functional, cell-based, Homo sapiens; conditions: Homo sapiens, RERF-LC-MS;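 further: growth inhibition of human RERF-LC-MS cells, read out by a cell viability assay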
Description: SANGER: Inhibition of human RERF-LC-MS cell growth in a cell viability assay.

[33] = test system: SF-295; type: functional, cell-based, Homo sapiens; conditions: Homo sapiens, SF-295; read-out: IC50;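 further: growth inhibition of SF-295 cells, read out with a cell viability assay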
Description: SANGER: Inhibition of human SF295 cell growth in a cell viability assay.

[34] = test system: SK-MEL3; type: functional, cell-based, Homo sapiens, SK-MEL-3; conditions: Homo sapiens, SK-MEL3;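 further: growth inhibition of human SK-MEL-3 cells, read out with a cell viability assay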
Description: SANGER: Inhibition of human SK-MEL-3 cell growth in a cell viability assay.

[35] = test system: SK-N-FI; type: functional, cell-based, Homo sapiens; conditions: Homo sapiens, SK-N-FI;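 further: cell viability assay measuring growth inhibition of human SK-N-FI cells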
Description: SANGER: Inhibition of human SK-N-FI cell growth in a cell viability assay.

[36] = test system: SNB-75; type: functional, cell-based, Homo sapiens; conditions: Homo sapiens, SNB-75;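 further: cell viability assay measuring growth inhibition of human SNB-75 cells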
Description: SANGER: Inhibition of human SNB75 cell growth in a cell viability assay.

[37] = test system: SW-620; type: functional, cell-based, Homo sapiens; conditions: Homo sapiens, SW-620;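 further: growth inhibition of human SW-620 cells, measured by a cell viability assay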
Description: SANGER: Inhibition of human SW620 cell growth in a cell viability assay.

[38] = test system: SW948; type: functional, cell-based, Homo sapiens; conditions: Homo sapiens, SW948;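 further: growth inhibition of SW948 cells, read out with a cell viability assay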
Description: SANGER: Inhibition of human SW948 cell growth in a cell viability assay.

[39] = test system: T84; type: functional, cell-based, Homo sapiens; conditions: Homo sapiens, T84;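 further: growth inhibition measured with a cell viability readout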
Description: SANGER: Inhibition of human T84 cell growth in a cell viability assay.

[40] = test system: 639-V; type: functional, cell-based, Homo sapiens; conditions: Homo sapiens, 639-V;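 further: growth inhibition of 639-V cells, read out with a cell viability assay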
Description: SANGER: Inhibition of human 639-V cell growth in a cell viability assay.

[41] = test system: A388; type: functional, cell-based, Homo sapiens; conditions: Homo sapiens, A388;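 further: growth inhibition of human A388 cells, read out with a cell viability assay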
Description: SANGER: Inhibition of human A388 cell growth in a cell viability assay.

[42] = test system: A-431; type: functional, cell-based, Homo sapiens; conditions: Homo sapiens, A-431;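 further: growth inhibition of A-431 cells, determined with a cell viability read-out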
Description: SANGER: Inhibition of human A431 cell growth in a cell viability assay.

[43] = test system: A673; type: functional, cell-based, Homo sapiens; conditions: Homo sapiens, A673;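 further: growth inhibition of human A673 cells, read out through a cell viability assay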
Description: SANGER: Inhibition of human A673 cell growth in a cell viability assay.

[44] = test system: BPH-1; type: functional, cell-based, Homo sapiens; conditions: Homo sapiens, BPH-1;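 further: cell viability assay measuring growth inhibition of human BPH-1 cells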
Description: SANGER: Inhibition of human BPH-1 cell growth in a cell viability assay.

[45] = test system: C8166; type: functional, cell-based; conditions: Homo sapiens;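 further: growth inhibition of human C8166 cells measured by a cell viability assay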
Description: SANGER: Inhibition of human C8166 cell growth in a cell viability assay.

[46] = test system: U-118-MG; type: functional, cell-based, Homo sapiens; conditions: Homo sapiens, U-118-MG
Description: SANGER: Inhibition of human U-118-MG cell growth in a cell viability assay.

[47] = test system: U-87 MG; type: functional, cell-based, U-87MG ATCC; conditions: Homo sapiens;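 further: growth inhibition of the cells measured with a viability assay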
Description: SANGER: Inhibition of human U-87-MG cell growth in a cell viability assay.

[48] = test system: UACC-893; type: functional, cell-based, Homo sapiens; conditions: Homo sapiens, UACC-893
Description: SANGER: Inhibition of human UACC-893 cell growth in a cell viability assay.

[49] = test system: CAMA-1; type: functional, cell-based, Homo sapiens; conditions: Homo sapiens, CAMA-1;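 further: growth inhibition of CAMA-1 cells, read out with a cell viability assay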
Description: SANGER: Inhibition of human CAMA-1 cell growth in a cell viability assay.

CN(Cc1cnc2nc(N)nc(N)c2n1)c1ccc(C(=O)N[C@@H](CCC(=O)O)C(=O)O)cc1 [METHOTREXATE]
IC50 [1]: 158 nM | IC50 [2]: > 200 nM | IC50 [3]: > 200 nM | IC50 [4]: > 200 nM | IC50 [5]: 16.4 nM | IC50 [6]: > 200 nM | IC50 [7]: > 200 nM | IC50 [8]: > 200 nM | IC50 [9]: > 200 nM | IC50 [10]: > 200 nM | IC50 [11]: 69.4 nM | IC50 [12]: 164 nM | IC50 [13]: > 200 nM | IC50 [14]: > 200 nM | IC50 [15]: > 200 nM | IC50 [16]: > 200 nM | IC50 [17]: > 200 nM | IC50 [18]: > 200 nM | IC50 [19]: > 200 nM | IC50 [20]: 99.4 nM | IC50 [21]: 11.6 nM | IC50 [22]: 1.98 nM | IC50 [23]: > 200 nM | IC50 [24]: > 200 nM | IC50 [25]: > 200 nM | IC50 [26]: > 200 nM | IC50 [27]: 0.691 nM | IC50 [28]: > 200 nM | IC50 [29]: > 200 nM | IC50 [30]: > 200 nM | IC50 [31]: > 200 nM | IC50 [32]: > 200 nM | IC50 [33]: > 200 nM | IC50 [34]: > 200 nM | IC50 [35]: > 200 nM | IC50 [36]: > 200 nM | IC50 [37]: > 200 nM | IC50 [38]: > 200 nM | IC50 [39]: > 200 nM | IC50 [40]: > 200 nM | IC50 [41]: > 200 nM | IC50 [42]: > 200 nM | IC50 [43]: > 200 nM | IC50 [44]: > 200 nM | IC50 [45]: > 200 nM | IC50 [46]: > 200 nM | IC50 [47]: > 200 nM | IC50 [48]: > 200 nM | IC50 [49]: > 200 nM

O=C(c1cc(Cc2n[nH]c(=O)c3ccccc23)ccc1F)N1CCN(C(=O)C2CC2)CC1 [OLAPARIB]
IC50 [1]: > 5000 nM | IC50 [2]: > 5000 nM | IC50 [3]: > 5000 nM | IC50 [4]: > 5000 nM | IC50 [5]: 1110 nM | IC50 [6]: > 5000 nM | IC50 [7]: > 5000 nM | IC50 [8]: > 5000 nM | IC50 [9]: > 5000 nM | IC50 [10]: > 5000 nM | IC50 [11]: > 5000 nM | IC50 [12]: > 5000 nM | IC50 [13]: > 5000 nM | IC50 [14]: > 5000 nM | IC50 [15]: > 5000 nM | IC50 [16]: > 5000 nM | IC50 [17]: > 5000 nM | IC50 [18]: > 5000 nM | IC50 [19]: > 5000 nM | IC50 [20]: > 5000 nM | IC50 [21]: > 5000 nM | IC50 [22]: > 5000 nM | IC50 [23]: > 5000 nM | IC50 [24]: > 5000 nM | IC50 [25]: > 5000 nM | IC50 [26]: > 5000 nM | IC50 [27]: 3870 nM | IC50 [28]: > 5000 nM | IC50 [29]: > 5000 nM | IC50 [30]: > 5000 nM | IC50 [31]: > 5000 nM | IC50 [32]: > 5000 nM | IC50 [33]: > 5000 nM | IC50 [34]: > 5000 nM | IC50 [35]: > 5000 nM | IC50 [36]: > 5000 nM | IC50 [37]: > 5000 nM | IC50 [38]: > 5000 nM | IC50 [39]: > 5000 nM | IC50 [40]: > 5000 nM | IC50 [41]: > 5000 nM | IC50 [42]: > 5000 nM | IC50 [43]: > 5000 nM | IC50 [44]: > 5000 nM | IC50 [45]: > 5000 nM | IC50 [46]: > 5000 nM | IC50 [47]: > 5000 nM | IC50 [48]: > 5000 nM | IC50 [49]: > 5000 nM
